Test results taken from patent US11291674B2 (CALITHERA BIOSCIENCES, INC., priority 2016, dated 2022).

Tests used:
[1] = target: T1, Recombinant bovine endothelial NOS (Bos taurus, UniProt P29473); assay: NOS activity assay, endothelial NOS; assay type: biochemical; settings: 50 μM arginase inhibitor
T1 construct: Eurofins/Cerep Panlabs (contract laboratory that ran the assay)
Description: (§1) Nitric oxide (NO) synthase (NOS) activity assays.
(§2) Standard deviations are indicated in parentheses. […] N/A=not applicable.

[2] = target: T2, Recombinant murine inducible NOS (Mus musculus, UniProt P29477); assay: NOS activity assay, inducible NOS; assay type: biochemical; settings: 50 μM arginase inhibitor
T2 construct: Eurofins/Cerep Panlabs (contract laboratory that ran the assay)
Description: as §1, §2

[3] = test system: cancer patient granulocyte-mediated suppression of T cell proliferation; assay: T cell proliferation in media conditioned by granulocytes of a head and neck cancer patient; assay type: cell-based, human
Method: T cell/myeloid cell co-culture assays. […] Granulocytes were incubated for 48 h at 37° C., during which time they spontaneously activate as determined by surface expression of CD66b and scatter properties. T cells isolated from the same donor using a pan-T cell isolation kit (Stemcell Technologies) were loaded with CFSE and plated with immobilized anti-CD3 and soluble anti-CD28 in the presence of the aged granulocytes. The cells were co-cultured at several ratios of granulocytes to T cells as indicated or at a fixed ratio of 4 T cells to 1 granulocyte. Co-cultures were incubated for 3-4 days, at which time media were analyzed for L-arginine and L-ornithine by mass spectrometry and T cell proliferation was determined by flow cytometry. Granulocytic MDSC (G-MDSC) or granulocytes from cancer patients were isolated from whole blood purchased from Conversant Biologics. G-MDSCs were purified from the PBMC layer of a Ficoll gradient by positive selection for CD66b^+ cells. Granulocytes were purified from the RBC layer of a Ficoll gradient using Hetasep (Stemcell Technologies). G-MDSC or granulocytes were incubated in co-culture media containing 100 μM L-arginine for 48 h, at which time the cells were removed and the G-MDSC- or granulocyte-conditioned media were used for incubating healthy donor CFSE-loaded T cells on immobilized anti-CD3/soluble anti-CD28 for 3-4 days. Cytokines were quantified in the media from T cell co-culture assays using the Cytometric Bead Array kit according to the manufacturer's instructions (BD Biosciences).

[4] = test system: B16 cell line; assay: Cytotoxicity assay (CellTiterGlo), B16; assay type: cell-based, murine; settings: 1 mM arginase inhibitor, 72 h
Method: Cytotoxicity assays. […] Cytotoxicity was assayed by the addition of CellTiterGlo reagent according to the manufacturer's instructions (Promega, Madison, Wis.) followed by […] quantification on a Molecular Devices plate reader (Sunnyvale, Calif.).

[5] = test system: B16 tumors; assay: B16 syngeneic tumor model; assay type: in vivo
Description: Murine tumor studies. Female wild-type C57BL/6 and Balb/c mice (5-6 weeks old) were purchased from Charles River Laboratories (Hollister, Calif.). Severe combined immune deficient (SCID, B6.CB17-PrkdcSCID/SzJ) and Pmel-1 TCR transgenic (B6.Cg-Thyla/Cy Tg(TcraTcrb)8Rest/J) mice (5-6 weeks old) were purchased from The Jackson Laboratory (Bar Harbor, Me.). All mice were housed and treated in accordance with Institutional Animal Care and Use Committee guidelines. For the 4T1 tumor model, 1×10^5 cells were injected orthotopically into the mammary fat pad; for all other tumor models, 1×10^6 cells were injected subcutaneously (s.c.) in the right flank. […] Control groups received vehicle (water) twice daily by gavage. Tumor volume measured by digital caliper (length×width×width/2) and body weight were recorded three times weekly. Animals were euthanized when tumors necrotized or volumes reached 2000 mm^3. Anti-PD-L1 antibody (5 mg/kg, clone 10F.9G2, BioXCell, West Lebanon, N.H.) was injected intraperitoneally (i.p.) on days 5, 7, 9, 11, 13, and 15 for the CT26 model. Gemcitabine (Selleckchem, Houston, Tex.) was dosed 50 mg/kg i.p. on days 10 and 16 for the CT26 model or 60 mg/kg i.p. on days 6 and 10 for the LLC model. For CD8^+ cell depletion, mice were injected i.p. with anti-CD8 antibody (25 mg/kg, clone 2.43, BioXCell) on days −1, 0, +5, and +10. For NK cell depletion, mice were injected i.p. with anti-NK1.1 antibody (25 mg/kg, clone PK136, BioXCell) in the LLC and B16 models or with anti-Asialo GM1 sera (20 μL, Wako Chemicals, Richmond, Va.) in the CT26 model, per the same schedule as anti-CD8.
Tumor dissociation and flow cytometry. […] All tumor flow experiments were acquired on an Attune N×T flow cytometer and analyzed with FlowJo software version 10 (Ashland, Oreg.), using fluorescence-minus-one controls for gating and single-stained OneComp eBeads (eBioscience) to set compensation matrices.

[6] = test system: B16 tumors; assay: Adoptive T cell transfer study, B16 model; assay type: in vivo, mouse; settings: compared to either single agent; all groups cyclophosphamide plus fludarabine
Method: Adoptive T cell transfer studies. Activated gp100-specific CD8^+ (Pmel-1) T cells were generated as described in Ya et al. Briefly, splenocytes from Pmel-1 TCR transgenic mice were isolated, pulsed with 1 μM of murine gp10025-33 (Anaspec, Fremont, Calif.) and expanded for 1 week in the presence of 60 IU/mL recombinant human IL-2 (Peprotech, Rocky Hill, N.J.). Cells were >90% CD8^+Vβ13^+ T cells as determined by flow cytometry. C57BL/6 mice were inoculated s.c. with B16 tumor cells. […] On day 7, lymphopenia was induced by a non-myeloablative chemotherapy regimen of 250 mg/kg cyclophosphamide and 50 mg/kg fludarabine administered i.p. The chemotherapy regimen was administered to all groups. On day 9, mice were administered 1×10^6 Pmel-1 T cells intravenously (i.v.). Mice receiving Pmel-1 T cells also received recombinant human IL-2 (200,000 IU/dose) administered i.p. twice daily for 3 days starting the day of T cell transfer.

Structure (SMILES): C[C@H](N)C(=O)N1C[C@H](CCCB(O)O)[C@](N)(C(=O)O)C1 [arginase inhibitor]
- Inhibition of endothelial NOS [1]: No inhibition
- Inhibition of inducible NOS [2]: No inhibition
- Secretion of interferon-γ and granzyme-B into the media ([3]; T cells in cancer patient granulocyte-conditioned media): restored secretion
- Arginine depletion of the media ([3]; granulocytes of a head and neck cancer patient): arginine depletion was blocked
- T cell proliferation restored, of control levels ([3]; media conditioned by granulocytes of a head and neck cancer patient): 79%
- Growth inhibition of B16 cell line [4]: No growth inhibition
- Tumor growth, single agent ([5]; 100 mg/kg BID PO): significantly inhibited the growth
- Tumor-infiltrating activated CD25+ CD8+ cytotoxic T cells vs vehicle ([5]; 100 mg/kg BID, study day 9, flow cytometry): increase
- Efficacy after depletion of either CD8+ cells or NK cells ([5]; 100 mg/kg twice daily, depleting antibodies): blocked the efficacy
- Tumor growth, combination with T cells specific for the PMEL tumor antigen [6]: significantly reduced tumor growth
